Values quoted from earlier work, collected in US4177261A, “Pharmaceutical composition and method of stimulating blood circulation and wound healing” (Thera Gesellschaft fur Patentverwertung mbH, priority 1977, dated 1979).
No end group written: not given here.

Details: intra-cuticular injection

Substance: RPPGFSPFR [Brady kinin, (NH2) arginine-proline-proline-glycine-phenylalanine-serine-proline-phenylalanine-arginine (COOH)]
- Quantity causing vehement pain reactions: about 0.1 micrograms per 1 milliliter of solution

Substance: kallidin: decapeptide; Bradykinin extended at the amino end by an additional lysine radical
- Quantity causing vehement pain reactions: about 0.1 micrograms per 1 milliliter of solution
